Experimental data taken from US7901724B2, “Fermented tea obtained by tea-rolling processing of tea material leaves and loquat leaves, and composition having extract contained in fermented tea as active component” (Nagasaki Prefectural Government, priority 2004, dated 2011).

Test system: normal rat
Assay: Maltose load in normal rat, single administration, blood glucose levels
Type: in vivo
Conditions: maltose 2 g/kg load
Experimental: Maltose was administered to a normal rat at a dosage of 2 g per kg of the body weight. Subsequently, an extract obtained by extracting the fermented tea obtained by means of tea-rolling processing with hot water was administered to the rat at a dosage of 20 mg per kg of the body weight, or a product was administered to the rat at a dosage of 20 mg per kg of the body weight, in which a plant in Sri Lanka, one of the materials having high activities with the highest level among the materials reported heretofore (J. Agri. Food. Chem. 2004) was extracted with methanol, then concentrated, and then freeze-dried, followed by dissolving the freeze-dried product in water. 30 minutes, 60 minutes, and 120 minutes after the administration, the blood glucose levels were measured.
As an indication of 50% reduction of the elevation of blood glucose levels, EC50 is employed.
Maltose was administrated to a normal rat at a dosage of 2 g per kg of the body weight. Subsequently, an extract obtained by extracting the fermented tea obtained by means of tea-rolling processing with hot water was administered at a dosage of 10 mg per kg of the body weight or 20 mg per kg of the body weight. A decreasing rate of the total blood glucose level area up to 120 minutes after carrying out carbohydrate load (AUCO-120) is shown in Table 6.

C[C@H]1O[C@H](O[C@H]2[C@H](O)[C@@H](O)[C@@H](O[C@H]3[C@H](O)[C@@H](O)C(O)O[C@@H]3CO)O[C@@H]2CO)[C@H](O)[C@@H](O)[C@@H]1N[C@H]1C=C(CO)[C@@H](O)[C@H](O)[C@H]1O (stereo partly shown) [Acarbose, acarbose]
EC50 (50% reduction of the elevation of blood glucose levels): 3.1 mg/kg
